Literature values, collected in patent US20240307316A1, “ANTIOXIDANT AND OXYGEN-RELEASING LIGNIN COMPOSITES TO ACCELERATE WOUND HEALING” (Board of Supervisors of Louisiana State University and …, priority 2023, published 2024).
Read-outs that look alike come from different tables or passages of the source.

| SMILES | solubility limit [mg/mL] | solubility (at 20° C.) [mg/mL] | concentrations exhibiting cytotoxicity (3T3 FBs) | solubility (at 18° C.) [mg/mL] |
| --- | --- | --- | --- | --- |
| [Ca+2].[O-][O-] [CaO2, Calcium peroxide] | 1.65 | 1.65 | higher than 10 mg/mL | – |
| [Mg+2].[O-][O-] [MgO2, magnesium peroxide] | – | – | – | 0.86 |
